According to ChEMBL document CHEMBL3525956, “Species independence in brain tissue binding using brain homogenates” (Drug Metab Dispos, 2011):

Tests used:
[1] = Fraction unbound in Wistar Han rat brain homogenates at 1 uM after 6 hrs by equilibrium dialysis method; settings: brain homogenate
[2] = Fraction unbound in Sprague-Dawley rat brain homogenates at 1 uM after 6 hrs by equilibrium dialysis method; settings: brain homogenate
[3] = Fraction unbound in CD-1 mouse brain homogenates at 1 uM after 6 hrs by equilibrium dialysis method; settings: brain homogenate
[4] = Fraction unbound in Hartley guinea pig brain homogenates at 1 uM after 6 hrs by equilibrium dialysis method; settings: brain homogenate
[5] = Fraction unbound in Beagle dog brain homogenates at 1 uM after 6 hrs by equilibrium dialysis method; settings: brain homogenate
[6] = Fraction unbound in cynomolgus monkey brain homogenates at 1 uM after 6 hrs by equilibrium dialysis method; settings: brain homogenate
[7] = Fraction unbound in human occipital cortex at 1 uM after 6 hrs by equilibrium dialysis method

Compound | fraction unbound at 6 h, 1 µM [1] | fraction unbound at 6 h, 1 µM [2] | fraction unbound at 6 h, 1 µM [3] | fraction unbound at 6 h, 1 µM [4] | fraction unbound at 6 h, 1 µM [5] | fraction unbound at 6 h, 1 µM [6] | fraction unbound at 6 h, 1 µM [7]
O=C(O[C@H]1CN2CCC1CC2)N1CCc2ccccc2[C@@H]1c1ccccc1 [SOLIFENACIN] | 0.019 | 0.015 | 0.016 | 0.014 | 0.018 | 0.016 | 0.017
CC(C)(C)NCC(O)COc1ccc(NC(=O)NC2CCCCC2)cc1 (stereo unspecified) [TALINOLOL] | 0.141 | 0.096 | 0.117 | 0.117 | 0.247 | 0.176 | 0.137
CC(CC(c1ccccc1)c1ccccc1)NC(C)(C)C (stereo unspecified) [TERODILINE] | 0.025 | 0.02 | 0.049 | 0.059 | 0.148 | 0.071 | 0.028
Cc1ccc(C(=O)c2cc(O)c(O)c([N+](=O)[O-])c2)cc1 [TOLCAPONE] | 0.001 | 0.007 | 0.002 | 0.002 | 0.05 | 0.003 | 0.003
O=c1n(CCCN2CCN(c3cccc(Cl)c3)CC2)nc2ccccn12 [TRAZODONE] | 0.085 | 0.062 | 0.086 | 0.059 | 0.066 | 0.082 | 0.077
CN1[C@@H]2CC[C@H]1C[C@@H](OC(=O)c1c[nH]c3ccccc13)C2 [TROPISETRON] | 0.056 | 0.045 | 0.059 | 0.048 | 0.047 | 0.064 | 0.053
CC(=O)CC(c1ccccc1)c1c(O)c2ccccc2oc1=O (stereo unspecified) [WARFARIN] | 0.183 | 0.199 | 0.094 | 0.326 | 0.384 | 0.318 | 0.295
NS(=O)(=O)Cc1noc2ccccc12 [ZONISAMIDE] | 0.327 | 0.598 | 0.299 | 0.389 | 0.428 | 0.386 | 0.308
